{
  "source": "patent US20260151516A1",
  "about": "“NEW PET TRACER FOR IMAGING OF THE FUNCTIONAL HEPATIC RESERVE” (Medizinische Universität Innsbruck, priority 2022, published 2026)",
  "key": {"[1]": {"test": "Biodistribution studies incl. blocking experiments", "assay_type": "in vivo", "settings": "healthy BALB/c mice", "procedure": "For biodistribution studies 6 week old female BALB/c mice (n=3) were injected with 0.1 nmol (100 μL, approx. 1 MBq) of labelled compound via the lateral tail vein and sacrificed after 10, 30, or 60 min by cervical dislocation. The mice were dissected, blood and organs (spleen, pancreas, stomach, intestine, liver, kidney, heart, lung, muscle, and bone) were weighed, and their activity measured in a γ-counter. For blocking experiments, mice were co-injected with 100 μL of a 277 mM Galactose/PBS solution. In case of [^68Ga]Ga-TRAP-GalNAc a 277 mM N-Acetylgalactose solution was used."}, "[2]": {"test": "Partition coefficient (log D), n-Octanol/PBS", "assay_type": "physicochemical", "procedure": "The vials were vortexed for 5 min at 1,500 rpm and then centrifuged for 5 min at 20,000 rcf (Eppendorf Centrifuge 5424)."}, "[3]": {"settings": "30 min p.i., blocking with 277 mM galactose"}},
  "data": [
    {"smiles": "O=C(CCP(=O)(O)CN1CCN(CP(=O)(O)CCC(=O)NCc2cn([C@@H]3O[C@H](CO)[C@H](O)[C@H](O)[C@H]3O)nn2)CCN(CP(=O)(O)CCC(=O)NCc2cn([C@@H]3O[C@H](CO)[C@H](O)[C@H](O)[C@H]3O)nn2)CC1)NCc1cn(C2O[C@H](CO)[C@H](O)[C@H](O)[C@H]2O)nn1", "note": "(stereo partly drawn) [Galacto-TRAP]", "values": [
      {"measurement": "Biodistribution Liver", "setting": "[1]; [3]", "result": "3.24±0.2", "unit": "% ID/g"}
    ]},
    {"smiles": "O=C(CCP(=O)([O-])CN1CCN(CP(=O)([O-])CCC(=O)NCc2cn([C@@H]3O[C@H](CO)[C@H](O)[C@H](O)[C@H]3O)nn2)CCN(CP(=O)([O-])CCC(=O)NCc2cn([C@@H]3O[C@H](CO)[C@H](O)[C@H](O)[C@H]3O)nn2)CC1)NCc1cn([C@@H]2O[C@H](CO)[C@H](O)[C@H](O)[C@H]2O)nn1.[68Ga+3]", "note": "[[^68Ga]Ga-Galacto-TRAP]", "values": [
      {"measurement": "logD", "setting": "[2]", "result": "−4.16±0.09"},
      {"measurement": "Biodistribution Femur", "setting": "[1]; 10 min p.i.", "result": "1.11 ± 0.18", "unit": "% ID/g"},
      {"measurement": "Biodistribution Heart", "setting": "[1]; 10 min p.i.", "result": "6.08 ± 0.51", "unit": "% ID/g"},
      {"measurement": "Biodistribution Intestine", "setting": "[1]; 10 min p.i.", "result": "1.80 ± 0.16", "unit": "% ID/g"},
      {"measurement": "Biodistribution Liver", "setting": "[1]; 10 min p.i.", "result": "12.2 ± 1.4", "unit": "% ID/g"},
      {"measurement": "Biodistribution Lung", "setting": "[1]; 10 min p.i.", "result": "1.97 ± 0.07", "unit": "% ID/g"},
      {"measurement": "Biodistribution Muscle", "setting": "[1]; 10 min p.i.", "result": "3.25 ± 0.27", "unit": "% ID/g"},
      {"measurement": "Biodistribution Pancreas", "setting": "[1]; 10 min p.i.", "result": "1.20 ± 0.03", "unit": "% ID/g"},
      {"measurement": "Biodistribution Spleen", "setting": "[1]; 10 min p.i.", "result": "5.58 ± 0.17", "unit": "% ID/g"},
      {"measurement": "Biodistribution Stomach", "setting": "[1]; 10 min p.i.", "result": "1.17 ± 0.05", "unit": "% ID/g"},
      {"measurement": "Biodistribution Blood", "setting": "[1]; 30 min p.i.", "result": "0.47 ± 0.16", "unit": "% ID/g"},
      {"measurement": "Biodistribution Femur", "setting": "[1]; 30 min p.i.", "result": "0.44 ± 0.01", "unit": "% ID/g"},
      {"measurement": "Biodistribution Heart", "setting": "[1]; 30 min p.i.", "result": "5.44 ± 0.75", "unit": "% ID/g"},
      {"measurement": "Biodistribution Intestine", "setting": "[1]; 30 min p.i.", "result": "0.79 ± 0.15", "unit": "% ID/g"},
      {"measurement": "Biodistribution Kidneys", "setting": "[1]; 30 min p.i.", "result": "0.88 ± 0.07", "unit": "% ID/g"},
      {"measurement": "Biodistribution Liver", "setting": "[1]; 30 min p.i.", "result": "5.02 ± 1.08", "unit": "% ID/g"},
      {"measurement": "Biodistribution Lung", "setting": "[1]; 30 min p.i.", "result": "0.75 ± 0.16", "unit": "% ID/g"},
      {"measurement": "Biodistribution Pancreas", "setting": "[1]; 30 min p.i.", "result": "0.49 ± 0.07", "unit": "% ID/g"},
      {"measurement": "Biodistribution Spleen", "setting": "[1]; 30 min p.i.", "result": "2.17 ± 0.54", "unit": "% ID/g"},
      {"measurement": "Biodistribution Stomach", "setting": "[1]; 30 min p.i.", "result": "0.53 ± 0.05", "unit": "% ID/g"},
      {"measurement": "Biodistribution Blood", "setting": "[1]; [3]", "result": "0.43 ± 0.14", "unit": "% ID/g"},
      {"measurement": "Biodistribution Femur", "setting": "[1]; [3]", "result": "0.38 ± 0.06", "unit": "% ID/g"},
      {"measurement": "Biodistribution Heart", "setting": "[1]; [3]", "result": "3.24 ± 0.19", "unit": "% ID/g"},
      {"measurement": "Biodistribution Intestine", "setting": "[1]; [3]", "result": "0.67 ± 0.15", "unit": "% ID/g"},
      {"measurement": "Biodistribution Kidneys", "setting": "[1]; [3]", "result": "0.75 ± 0.11", "unit": "% ID/g"},
      {"measurement": "Biodistribution Liver", "setting": "[1]; [3]", "result": "5.10 ± 0.72", "unit": "% ID/g"},
      {"measurement": "Biodistribution Lung", "setting": "[1]; [3]", "result": "0.68 ± 0.08", "unit": "% ID/g"},
      {"measurement": "Biodistribution Muscle", "setting": "[1]; [3]", "result": "1.35 ± 0.16", "unit": "% ID/g"},
      {"measurement": "Biodistribution Pancreas", "setting": "[1]; [3]", "result": "0.43 ± 0.02", "unit": "% ID/g"},
      {"measurement": "Biodistribution Spleen", "setting": "[1]; [3]", "result": "1.84 ± 0.14", "unit": "% ID/g"},
      {"measurement": "Biodistribution Stomach", "setting": "[1]; [3]", "result": "0.48 ± 0.05", "unit": "% ID/g"},
      {"measurement": "Biodistribution Blood", "setting": "[1]; 60 min p.i.", "result": "0.11 ± 0.03", "unit": "% ID/g"},
      {"measurement": "Biodistribution Femur", "setting": "[1]; 60 min p.i.", "result": "0.10 ± 0.04", "unit": "% ID/g"},
      {"measurement": "Biodistribution Heart", "setting": "[1]; 60 min p.i.", "result": "4.84 ± 0.66", "unit": "% ID/g"},
      {"measurement": "Biodistribution Intestine", "setting": "[1]; 60 min p.i.", "result": "0.14 ± 0.02", "unit": "% ID/g"},
      {"measurement": "Biodistribution Kidneys", "setting": "[1]; 60 min p.i.", "result": "0.60 ± 0.06", "unit": "% ID/g"},
      {"measurement": "Biodistribution Lung", "setting": "[1]; 60 min p.i.", "result": "0.12 ± 0.01", "unit": "% ID/g"},
      {"measurement": "Biodistribution Muscle", "setting": "[1]; 60 min p.i.", "result": "0.35 ± 0.05", "unit": "% ID/g"},
      {"measurement": "Biodistribution Pancreas", "setting": "[1]; 60 min p.i.", "result": "0.12 ± 0.02", "unit": "% ID/g"},
      {"measurement": "Biodistribution Spleen", "setting": "[1]; 60 min p.i.", "result": "0.52 ± 0.23", "unit": "% ID/g"},
      {"measurement": "Biodistribution Stomach", "setting": "[1]; 60 min p.i.", "result": "0.11 ± 0.01", "unit": "% ID/g"}
    ]}
  ]
}
